Assay results published in patent publication US4203989A, “Anti-diarrheal diaryl-(1-azabicyclo(2.2.2)octan-2-yl)-alkanols and related compounds” (G. D. Searle & Co., priority 1979, dated 1980).

Test system: gastrointestinal motility
Assay: Mouse Cecal Test (inhibition of gastrointestinal motility, charcoal in cecum)
Assay type: in vivo, mouse (male Charles River mice)
Details: IG (oral), 30 min before oral charcoal, cecum examined 3.5 h after charcoal, all-or-none, logistic method of Berkson, read-out: ED50 ± S.E. (median effective dose)
Method: The method used for this assay is a modification of the techniques previously described by Macht and Barb-Gose, J. Amer. Pharm. Ass., 20, 558 (1931), and Janssen and Jageneau, J. Pharm. Pharmacol., 9, 381 (1957). Details are as follows:
A group of six, male Charles River mice weighing 20-25 g. which have been previously fasted for 24 hours are pretreated with the test compounds administered orally as a solution in water or suspended in 0.5% methyl cellulose. A constant volume of 10 ml./kg. is employed. Thirty minutes following administration of the test compounds, the animals are given a single oral dose of charcoal which consists of 0.2 ml. per mouse of 10% charcoal suspended in 1.0% methyl cellulose. Three and a half hours after charcoal administration, the animals are sacrificed and the cecum examined for the absence or presence of charcoal on an all-or-none basis.
The median effective dose (ED50) is then calculated for each compound using the logistic method of Berkson (1953).

Row | SMILES | ED50 [mg/kg]
1 | Cl.OC1(C(CC2CC3CCN2CC3)(c2ccccc2)c2ccccc2)CCCC1 (centres unmarked) [1-[2-(1-azabicyclo[2.2.2]octan-2-yl)-1,1-diphenylethyl] cyclopentanol hydrochloride] | 1.78 ± 0.83
2 | OC1(C(CC2CC3CCN2CC3)(c2ccccc2)c2ccccc2)CCCC1 (centres unmarked) [1-[2-(1-azabicyclo[2.2.2]octan-2-yl)-1,1-diphenylethyl] cyclopentanol] | 7.61 ± 2.23
3 | CC(C)(O)C(CC1CC2CCN1CC2)(c1ccccc1)c1ccccc1 (stereo not drawn) [Alpha, alpha-dimethyl-beta, beta-diphenyl-1-azabicyclo [2.2.2]octane-2-propanol] | 1.6 ± 0.28
4 | OCCC(CC1CC2CCN1CC2)(c1ccccc1)c1ccccc1 (centres unmarked) [Gamma, gamma-diphenyl-1-azabicyclo[2.2.2]octane-2-butanol] | 6.39 ± 2.09
5 | Cl.OCCC(CC1CC2CCN1CC2)(c1ccccc1)c1ccccc1 (centres unmarked) [gamma, gamma-diphenyl-1-azabicyclo[2.2.2]octane-2-butanol hydrochloride] | 1.2 ± 0.25
